Measurements as given in publication PMC5506375 (Journal of medicinal chemistry, 2017).

Key:
[1] = target: C. jejuni NCTC 11168 PglD acetyltransferase (Campylobacter jejuni subsp. jejuni serotype O:2, UniProt Q0P9D1); assay: continuous C. jejuni PglD inhibition assay; type: biochemical; settings: for Km: PglD substrates
[2] = long-term stability in solution; type: physicochemical
solubility properties = type: physicochemical
C jejuni PglD [3] = target: T1, C jejuni PglD (Campylobacter jejuni subsp. jejuni serotype O:2, UniProt Q0P9D1); assay: PglD inhibition assay with varying substrate concentrations; type: biochemical
T1 sequence (Q0P9D1 whole entry): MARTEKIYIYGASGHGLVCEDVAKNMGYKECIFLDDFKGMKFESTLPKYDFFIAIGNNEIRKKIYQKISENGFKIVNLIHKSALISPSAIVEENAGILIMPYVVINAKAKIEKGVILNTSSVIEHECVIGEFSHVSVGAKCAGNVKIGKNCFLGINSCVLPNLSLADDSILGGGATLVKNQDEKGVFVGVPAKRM

C jejuni PglD [4] = target: T1, C jejuni PglD; assay: dynamic light scattering of PglD/inhibitor complex; settings: apo PglD 31% PDI
F. tularensis = settings: both pre- and post-infection; cited from earlier work
[5] = at therapeutic doses; cited from earlier work
pathogen growth = settings: in vitro; cited from earlier work
S. typhimurium = settings: mouse infection model; cited from earlier work

Sequence of C. jejuni NCTC 11168 PglD acetyltransferase (Q0P9D1 whole entry): as above

SMILES: CC(=O)SCCNC(=O)CCNC(=O)[C@H](O)C(C)(C)COP(=O)(O)OP(=O)(O)OC[C@H]1O[C@@H](n2cnc3c(N)ncnc32)[C@H](O)[C@@H]1OP(=O)(O)O [AcCoA, acetyl coenzyme A]
- Km [1]: 295 µM

SMILES: Cc1c(C(=O)O)sc2nc(/C=C/c3ccc4[nH]ccc4c3)[nH]c(=O)c12 [Compound 4]
- long-term stability in solution [2]: poor long-term stability in solution
- solubility properties (solubility properties): poor solubility properties

SMILES: COc1cc(CCNc2nc(CCc3ccccc3)nc3sc(C(=O)O)c(C)c23)cc(OC)c1 [Compound 37, 4-((3,5-Dimethoxyphenethyl)amino)-5-methyl-2-phenethylthieno[2,3-d]pyrimidine-6-carboxylic acid]
- decrease in potency (C jejuni PglD [3]; 2-fold increase in AcCoA): 2 fold
- decrease in potency (C jejuni PglD [3]; 5-fold increase in AcCoA): 4 fold
- effect of higher UDP-4-amino-sugar concentrations on the inhibition (C jejuni PglD [3]; significantly higher UDP-4-amino-sugar concentrations): no measurable effect

SMILES: CNc1nc(CCc2ccccn2)nc2sc(C(=O)O)c(C)c12 [Compound 43, 5-Methyl-4-(methylamino)-2-(2-(pyridin-2-yl)ethyl)thieno[2,3-d]pyrimidine-6-carboxylic acid]
- enhancement of potency versus 17 ([1]; 43 vs 17): 4.8 fold

SMILES: CO[C@H](CNc1nc(CCc2ccc(NC(C)=O)cc2)nc2sc(C(=O)O)c(C)c12)c1ccccc1 [Compound 55, (S)-2-(4-Acetamidophenethyl)-4-((2-methoxy-2-phenylethyl)amino)-5-methylthieno[2,3-d]pyrimidine-6-carboxylic acid]
- polydispersity index (PDI) of PglD/inhibitor complex (C jejuni PglD [4]): 24 % PDI

SMILES: O=S(=O)(Nc1ccccc1)c1ccc(NC(=S)Nc2ccccc2)cc1 [Compound 56, N-phenyl-4-(3-phenylthioureido)benzenesulfonamide]
- protection against F. tularensis (F. tularensis): provided protection
- toxicity [5]: not toxic
- effect on pathogen growth (pathogen growth): did not affect pathogen growth
- efficacy against S. typhimurium (S. typhimurium): prophylactic efficacy

SMILES: CC(=O)N[C@H]1[C@@H](OP(=O)(O)OP(=O)(O)OC[C@H]2O[C@@H](n3ccc(=O)[nH]c3=O)[C@H](O)[C@@H]2O)O[C@H](C)[C@@H](N)[C@@H]1O [UDP-4-amino-sugar]
- Km [1]: 274 µM
